The target of experiment [1] is T1, myeloperoxidase (MPO) (Homo sapiens (Human), UniProt P05164). Briefly: MPO chlorination assay (APF assay). In kind it is biochemical. The conditions noted are these: potency range class. The gist of the method: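 Human MPO (200 pM) preincubated 10 min at room temperature with inhibitor and 120 mM NaCl in 100 mM KPi pH 7.4. Reaction started with APF plus 10 μM H2O2, and hypochlorite-generated fluorescein read kinetically (ex 485/em 535 nm) for 3 min. IC50 from linear-phase slopes fitted to a four-parameter equation.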

In experiment [2] the target is T1, myeloperoxidase (MPO). Briefly: MPO peroxidation assay (Amplex Red assay). The conditions noted are these: potency range class. In kind it is biochemical. The gist of the method:
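Human MPO at 200 pM with 40 nM H2O2 preincubated 10 min at room temperature with inhibitor in 100 mM KPi pH 7.4. Reaction started with Amplex Red mixture (200 μM Amplex Red, 10 mM H2O2); resorufin fluorescence (Ex 535, Em 590 nm) read kinetically for 15 min. IC50 fitted from slopes over 180-540 s.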

Structures are written as SMILES.

One may read the IC50 as the concentration needed to halve the response being measured. High values mean a need for much substance, low ones inhibition by little substance.

T1 sequence (P05164 49-745): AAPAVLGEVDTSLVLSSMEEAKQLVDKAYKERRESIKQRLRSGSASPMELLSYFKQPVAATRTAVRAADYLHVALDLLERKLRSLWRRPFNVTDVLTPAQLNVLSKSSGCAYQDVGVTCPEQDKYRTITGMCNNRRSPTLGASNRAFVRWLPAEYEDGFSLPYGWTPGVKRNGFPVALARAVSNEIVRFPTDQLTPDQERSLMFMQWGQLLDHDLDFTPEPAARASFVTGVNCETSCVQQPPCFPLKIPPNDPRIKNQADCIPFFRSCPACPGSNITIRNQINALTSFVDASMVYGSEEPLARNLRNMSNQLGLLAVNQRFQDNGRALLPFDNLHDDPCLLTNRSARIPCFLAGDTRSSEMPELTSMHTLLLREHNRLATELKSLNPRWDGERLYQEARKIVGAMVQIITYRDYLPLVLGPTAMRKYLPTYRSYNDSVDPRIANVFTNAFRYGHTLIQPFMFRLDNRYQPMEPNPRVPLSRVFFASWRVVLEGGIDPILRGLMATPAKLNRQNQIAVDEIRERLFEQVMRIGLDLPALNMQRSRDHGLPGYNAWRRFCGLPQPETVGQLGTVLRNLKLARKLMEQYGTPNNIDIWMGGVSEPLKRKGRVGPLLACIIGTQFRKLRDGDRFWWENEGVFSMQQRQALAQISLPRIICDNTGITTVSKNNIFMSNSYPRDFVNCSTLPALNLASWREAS

Take `Nc1cc(Cc2cnn(Cc3cc([C@@H]4CCNC4)ccc3Cl)c2)c2nn[nH]c2n1` [Example 198, 7-{[1-({2-Chloro-5-[(3 S)-pyrrolidin-3-yl]phenyl}methyl)-1H-pyrazol-4-yl]methyl}-3H-[1,2,3]triazolo[4,5-b]pyridin-5-amine]: the IC50 in experiment [1] is 101 to 999 nM; in experiment [2], 1 to 100 nM.
In the case of `Nc1cc(Cc2cnn(Cc3cc([C@@H]4CCNC4)cc(F)c3F)c2)c2nn[nH]c2n1` [Example 199, 7-{[1-({2,3-Difluoro-5-[(3S)-pyrrolidin-3-yl]phenyl}methyl)-1H-pyrazol-4-yl]methyl}-3H-[1,2,3]triazolo[4,5-b]pyridin-5-amine], the IC50 in experiment [1] and in experiment [2] was 1 to 100 nM in each case.
Regarding `Nc1cc(Cc2cnn(Cc3cc([C@@H]4CCNC4)ccc3OC(F)F)c2)c2nn[nH]c2n1` [Example 200, 7-[(1-{[2-(Difluoromethoxy)-5-[(3 S)-pyrrolidin-3-yl]phenyl]methyl}-1H-pyrazol-4-yl)methyl]-3H-[1,2,3]triazolo[4,5-b]pyridin-5-amine], the IC50 in experiment [1] and in experiment [2] was 1 to 100 nM each time.
As for `Nc1cc(Cc2cnn(Cc3cc([C@@H]4CC(=O)NC4CO)cc(C(F)(F)F)c3)c2)c2nn[nH]c2n1` (stereo partly drawn) [Example 201, (4S)-4-(3-{[4-({5-Amino-3H-[1,2,3]triazolo[4,5-b]pyridin-7-yl}methyl)-1H-pyrazol-1-yl]methyl}-5-(trifluoromethyl)phenyl)-5-(hydroxymethyl)pyrrolidin-2-one], the IC50 in experiment [1] and in experiment [2] was 1 to 100 nM throughout.
In the case of `CC1C[C@@H](c2cccc(Cn3cc(Cc4cc(N)nc5[nH]nnc45)cn3)c2)CN1` (stereo partly drawn) [Example 202, 7-{[1-({3-[(3S)-5-Methylpyrrolidin-3-yl]phenyl}methyl)-1H-pyrazol-4-yl]methyl}-3H-[1,2,3]triazolo[4,5-b]pyridin-5-amine], the IC50 in experiment [1] and in experiment [2] was 1 to 100 nM in each case.
For `Nc1cc(Cc2cnn(Cc3cccc([C@H]4CNC(Cc5ccccc5)C4)c3)c2)c2nn[nH]c2n1` (stereo partly drawn) [Example 203, 7-{[1-({3-[(3S)-5-benzylpyrrolidin-3-yl]phenyl}methyl)-1H-pyrazol-4-yl]methyl}-3H-[1,2,3]triazolo[4,5-b]pyridin-5-amine], the IC50 in experiment [1] and in experiment [2] was 1 to 100 nM in each case.
Take `CCCC1C[C@@H](c2cccc(Cn3cc(Cc4cc(N)nc5[nH]nnc45)cn3)c2)CN1` (stereo partly drawn) [Example 204, 7-{[1-({3-[(3S)-5-propylpyrrolidin-3-yl]phenyl}methyl)-1H-pyrazol-4-yl]methyl}-3H-[1,2,3]triazolo[4,5-b]pyridin-5-amine]: the IC50 in experiment [1] and in experiment [2] was 1 to 100 nM in each case.
As to `CC(C)C1C[C@@H](c2cccc(Cn3cc(Cc4cc(N)nc5[nH]nnc45)cn3)c2)CN1` (stereo partly drawn) [Example 205, 7-{[1-({3-[(3S)-5-(propan-2-yl)pyrrolidin-3-yl]phenyl}methyl)-1H-pyrazol-4-yl]methyl}-3H-[1,2,3]triazolo[4,5-b]pyridin-5-amine], the IC50 in experiment [1] and in experiment [2] was 1 to 100 nM each time.
Turning to `Nc1cc(Cc2cnn(Cc3cccc(C4CCNCC4)c3)c2)c2nn[nH]c2n1` [Example 206, 7-[(1-{[3-(Piperidin-4-yl)phenyl]methyl}-1H-pyrazol-4-yl)methyl]-3H-[1,2,3]triazolo[4,5-b]pyridin-5-amine], the results for the IC50 in experiment [1] and in experiment [2] were 101 to 999 nM and 1 to 100 nM, respectively.
Regarding `Nc1cc(Cc2cnn(Cc3cccc(CC4CCNCC4)c3)c2)c2nn[nH]c2n1` [Example 207, 7-[(1-{[3-(Piperidin-4-ylmethyl)phenyl]methyl}-1H-pyrazol-4-yl)methyl]-3H-[1,2,3]triazolo[4,5-b]pyridin-5-amine], the figures for the IC50 in experiment [1] and in experiment [2] were 101 to 999 nM and 1 to 100 nM, respectively.
Taken in the same sequence, the figures for `Nc1cc(Cc2cnn(Cc3cccc(C4CCCN4)c3)c2)c2nn[nH]c2n1` (stereo not shown) [Example 208, 7-[(1-{[3-(Pyrrolidin-2-yl)phenyl]methyl}-1H-pyrazol-4-yl)methyl]-3H-[1,2,3]triazolo[4,5-b]pyridin-5-amine] were 1 to 100 nM and 1 to 100 nM.
On to `CN1CCC(c2cccc(Cn3cc(Cc4cc(N)nc5[nH]nnc45)cn3)c2)CC1` [Example 209, 7-[(1-{[3-(1-Methylpiperidin-4-yl)phenyl]methyl}-1H-pyrazol-4-yl)methyl]-3H-[1,2,3]triazolo[4,5-b]pyridin-5-amine], for which the IC50 in experiment [1] and in experiment [2] was 101 to 999 nM each time.
Consider `Nc1cc(Cc2cnn(Cc3cccc(C4CNC4)c3)c2)c2nn[nH]c2n1` [Example 210, 7-[(1-{[3-(Azetidin-3-yl)phenyl]methyl}-1H-pyrazol-4-yl)methyl]-3H-[1,2,3]triazolo[4,5-b]pyridin-5-amine], for which the IC50 in experiment [1] and in experiment [2] was 1 to 100 nM in each case.
`CC1CC(c2cccc(Cn3cc(Cc4cc(N)nc5[nH]nnc45)cn3)c2)CCN1` (stereo not shown) [Example 211, 7-[(1-{[3-(2-Methylpiperidin-4-yl)phenyl]methyl}-1H-pyrazol-4-yl)methyl]-3H-[1,2,3]triazolo[4,5-b]pyridin-5-amine]: the IC50 in experiment [1] and in experiment [2] was 1 to 100 nM in each case.
In the case of `CC1CNCCC1c1cccc(Cn2cc(Cc3cc(N)nc4[nH]nnc34)cn2)c1` (stereo not shown) [Example 212, 7-[(1-{[3-(3-Methylpiperidin-4-yl)phenyl]methyl}-1H-pyrazol-4-yl)methyl]-3H-[1,2,3]triazolo[4,5-b]pyridin-5-amine], the IC50 in experiment [1] and in experiment [2] was 1 to 100 nM throughout.
Consider `Nc1cc(Cc2cnn(Cc3cccc(C4(O)CCNCC4F)c3)c2)c2nn[nH]c2n1` (stereo not shown) [Example 213, 4-(3-{[4-({5-Amino-3H-[1,2,3]triazolo[4,5-b]pyridin-7-yl}methyl)-1H-pyrazol-1-yl]methyl}phenyl)-3-fluoropiperidin-4-ol], for which the IC50 is 101 to 999 nM in experiment [1] and 1 to 100 nM in experiment [2].
For the molecule `Nc1cc(Cc2cnn(Cc3cccc(C4CCNCC4(F)F)c3)c2)c2nn[nH]c2n1` (stereo not shown) [Example 214, 7-[(1-{[3-(3,3-Difluoropiperidin-4-yl)phenyl]methyl}-1H-pyrazol-4-yl)methyl]-3H-[1,2,3]triazolo[4,5-b]pyridin-5-amine], the half-maximal inhibitory concentration (IC50) in experiment [1] was 101 to 999 nM; in experiment [2], 1 to 100 nM.
In the case of `Nc1cc(Cc2cnn(Cc3ccccc3C3CCNCC3)c2)c2nn[nH]c2n1` [Example 215, 7-[(1-{[2-(Piperidin-4-yl)phenyl]methyl}-1H-pyrazol-4-yl)methyl]-3H-[1,2,3]triazolo[4,5-b]pyridin-5-amine], the half-maximal inhibitory concentration (IC50) was in the range of 101 to 999 nM in experiment [1] and 1 to 100 nM in experiment [2].
Taken in the same sequence, the figures for `Nc1cc(Cc2cnn(Cc3cccc(C4CCNCC4F)c3)c2)c2nn[nH]c2n1` (stereo not shown) [Example 216, 7-[(1-{[3-(3-Fluoropiperidin-4-yl)phenyl]methyl}-1H-pyrazol-4-yl)methyl]-3H-[1,2,3]triazolo[4,5-b]pyridin-5-amine] were 1 to 100 nM and 1 to 100 nM.
With `Nc1cc(Cc2cnn(Cc3cccc(N4CCNCC4)c3)c2)c2nn[nH]c2n1` [Example 217, 7-[(1-{[3-(Piperazin-1-yl)phenyl]methyl}-1H-pyrazol-4-yl)methyl]-3H-[1,2,3]triazolo[4,5-b]pyridin-5-amine], the IC50 in experiment [1] is 101 to 999 nM; in experiment [2], 1 to 100 nM.
Taken in the same sequence, the figures for `Nc1cc(Cc2cnn(Cc3cccc(N4CCNC(c5cccc(Cl)c5)C4)c3)c2)c2nn[nH]c2n1` (stereo not shown) [Example 218, 7-{[1-({3-[3-(3-Chlorophenyl)piperazin-1-yl]phenyl}methyl)-1H-pyrazol-4-yl]methyl}-3H-[1,2,3]triazolo[4,5-b]pyridin-5-amine] were 1 to 100 nM and 101 to 999 nM.
For the molecule `Nc1cc(Cc2cnn(Cc3cccc(N4CCNC(c5ccccc5)C4)c3)c2)c2nn[nH]c2n1` (stereo not shown) [Example 219, 7-[(1-{[3-(3-Phenylpiperazin-1-yl)phenyl]methyl}-1H-pyrazol-4-yl)methyl]-3H-[1,2,3]triazolo[4,5-b]pyridin-5-amine], the IC50 is 1 to 100 nM in experiment [1] and 101 to 999 nM in experiment [2].
Turning to `Nc1cc(Cc2cnn(Cc3cccc(N4CCN[C@@H](COCc5ccccc5)C4)c3)c2)c2nn[nH]c2n1` [Example 220, 7-{[1-({3-[(3R)-3-[(Benzyloxy)methyl]piperazin-1-yl]phenyl}methyl)-1H-pyrazol-4-yl]methyl}-3H-[1,2,3]triazolo[4,5-b]pyridin-5-amine], the IC50 is 1 to 100 nM in experiment [1] and 101 to 999 nM in experiment [2].
For `C[C@@H]1CN(c2cccc(Cn3cc(Cc4cc(N)nc5[nH]nnc45)cn3)c2)C[C@H](C)N1` [Example 221, 7-{[1-({3-[cis-3,5-Dimethylpiperazin-1-yl]phenyl}methyl)-1H-pyrazol-4-yl]methyl}-3H-[1,2,3]triazolo[4,5-b]pyridin-5-amine], the IC50 in experiment [1] and in experiment [2] was 1 to 100 nM in each case.
Consider `Nc1cc(Cc2cnn(Cc3cccc(N4CCNC(C(F)(F)F)C4)c3)c2)c2nn[nH]c2n1` (stereo not shown) [Example 222, 7-{[1-({3-[3-(Trifluoromethyl)piperazin-1-yl]phenyl}methyl)-1H-pyrazol-4-yl]methyl}-3H-[1,2,3]triazolo[4,5-b]pyridin-5-amine], for which the half-maximal inhibitory concentration (IC50) in experiment [1] and in experiment [2] was 101 to 999 nM in each case.
With `Nc1cc(Cc2cnn(Cc3cccc(N4CCNC5(CCCCC5)C4)c3)c2)c2nn[nH]c2n1` [Example 223, 7-({1-[(3-{1,4-Diazaspiro[5.5]undecan-4-yl}phenyl)methyl]-1H-pyrazol-4-yl}methyl)-3H-[1,2,3]triazolo[4,5-b]pyridin-5-amine], the IC50 in experiment [1] lay in the range of 1 to 100 nM; in experiment [2], 101 to 999 nM.

(Values after patent US10407422B2, “Triazolopyridine inhibitors of myeloperoxidase” (priority 2015, dated 2019).)
